From patent US9907312B2, “Compositions comprising a biological control agent and an insecticide” (priority 2012, dated 2018)

Key:
Type in all cases: in vivo
[1] = system: Phaedon cochleariae; assay: Phaedon cochleariae spray test, Chinese cabbage leaf-disks; conditions: mortality after 6 d
Procedure: (§1) For all examples the efficiencies of the compositions comprising at least one BCA and at least one specific insecticide has been determined by the “Colby-formula”: The expected efficacy of a given combination of two compounds is calculated as follows (see Colby, S. R., “Calculating Synergistic and antagonistic Responses of Herbicide Combinations”, Weeds 15, pp. 20-22, 1967):
(§2) If • X is the efficacy expressed in % mortality of the untreated control for test compound A at a concentration of m ppm respectively m g/ha, • Y is the efficacy expressed in % mortality of the untreated control for test compound B at a concentration of n ppm respectively n g/ha, • E is the efficacy expressed in % mortality of the untreated control using the mixture of A and B at m and n ppm respectively m and n g/ha, then is E=X+Y−(X×Y/100)
(§3) If the observed insecticidal efficacy of the combination is higher than the one calculated as “E”, then the combination of the two compounds is more than additive, i.e., there is a synergistic effect.
(§4) To produce a suitable preparation of active compound, 1 part by weight of active compound is mixed with the stated amount of solvent and emulsifier, and the concentrate is diluted with emulsifier-containing water to the desired concentration. To produce a suitable preparation of a spore suspension the spores are diluted with emulsifier-containing water to the desired concentration.
Chinese cabbage (Brassica pekinensis) leaf-disks are sprayed with a preparation of the active ingredient of the desired concentration. Once dry, the leaf disks are infested with mustard beetle larvae (Phaedon cochleariae).
After the specified period of time, mortality in % is determined. 100% means all beetle larvae have been killed and 0% means none of the beetle larvae have been killed. The mortality values determined thus are recalculated using the Colby-formula (see above).

[2] = system: Tetranychus urticae; assay: Tetranychus urticae spray test, OP-resistant, French beans; conditions: 0.032 g ai/ha; mortality after 2 d
Procedure: as §1, §2
(§5) If the observed insecticidal efficacy of the combination is higher than the one calculated as “E”, then the combination of the two compounds is more than additive, i.e., there is a synergistic effect. […]
(§6) After the specified period of time, mortality in % is determined. […] The mortality values determined thus are recalculated using the Colby-formula (see above).

[3] = system: Nilaparvata lugens; assay: Nilaparvata lugens spray test (NILALU), rice plants; conditions: 1 ppm; mortality after 3 d
Procedure: as §1, §2, §3
To produce a suitable preparation of active compound, 1 part by weight of active compound is mixed with the stated amount of solvent and emulsifier, and the concentrate is diluted with emulsifier-containing water to the desired concentration. […]
After the specified period of time, mortality in % is determined. […]

[4] = system: Myzus persicae; assay: Myzus persicae spray test (MYZUPE), Chinese cabbage leaf-disks; conditions: mortality after 6 d
Procedure: as §1, §2, §3, §4
Chinese cabbage (Brassica pekinensis) leaf-disks infected with all instars of the green peach aphid (Myzus persicae), are sprayed with a preparation of the active ingredient of the desired concentration.
After the specified period of time, mortality in % is determined. 100% means all aphids have been killed; 0% means none of the aphids have been killed. The mortality values determined thus are recalculated using the Colby-formula (see above).

[5] = system: Spodoptera frugiperda; assay: Spodoptera frugiperda spray test, cotton leaves; conditions: 0.8 ppm; mortality after 1 d
Procedure: as §1, §2, §5, §6

In the case of Abamectin [Abamectin (I152)], the “Efficacy in % after 6d” value ([1]; 0.8 g ai/ha) was 0% and the “Efficacy in % after 2d” value [2] was 0%.
N#Cc1nn(-c2c(Cl)cc(C(F)(F)F)cc2Cl)c(N)c1[S+]([O-])C(F)(F)F (stereo not drawn) [Fipronil (I95), Fipronil] was tested, and the “Efficacy in % after 3d” value [3] was 0%, the “Efficacy in % after 6d” value ([1]; 0.25 g ai/ha) was 33% and the “Efficacy in % after 6d” value ([4]; 4 g/ha) was 0%. The “Efficacy in % after 6d” value ([4]; 100 g/ha) was 0%.
For CNC(=O)Oc1cc(C)c(SC)c(C)c1 [Methiocarb (I15), Methiocarb], the “Efficacy in % after 6d” value ([1]; 20 g ai/ha) was 0% and the “Efficacy in % after 6d” value ([4]; 500 g/ha) was 0%.
In the case of CS/C(C)=N\OC(=O)N(C)SN(C)C(=O)O/N=C(\C)SC [Thiodicarb (I21), Thiodicarb], the “Efficacy in % after 1d” value [5] was 50%.
